# Laboratory results taken from PubChem BioAssay AID248 (DTP/NCI, 2004).
# Values joined by “and” are separate entries in the source; they are usually repeats but may differ in a detail not shown here. Identical values can stand only once. Toxic doses and inconclusive results are not listed.
# System: L1210 leukemia ip in BDF1 mice, survival T/C
# Assay: NCI In Vivo Anticancer Drug Screen. Data for tumor model L1210 Leukemia (intraperitoneal) in B6D2F1 (BDF1) mice
# Details: endpoint: mean survival time, higher = longer survival
# Method in brief: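 Survival endpoint. Drug-treated group vs vehicle group, expressed as T divided by C. Tumor passaged by transplantation.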
# [1] = dose: 100.0 mg/kg/injection, schedule: Q04DX003 (ip), vehicle: saline with Tween-80
# [2] = dose: 200.0 mg/kg/injection, schedule: Q04DX003 (ip), vehicle: saline with Tween-80
# [3] = dose: 400.0 mg/kg/injection, schedule: Q04DX003 (ip), vehicle: saline with Tween-80
# [4] = dose: 12.5 mg/kg/injection, schedule: Q01DX009 (ip), vehicle: Klucel (hydroxypropylcellulose) (HPC)
# [5] = dose: 25.0 mg/kg/injection, schedule: Q01DX009 (ip), vehicle: Klucel (hydroxypropylcellulose) (HPC)
# [6] = dose: 50.0 mg/kg/injection, schedule: Q01DX009 (ip), vehicle: Klucel (hydroxypropylcellulose) (HPC)
# [7] = dose: 100.0 mg/kg/injection, schedule: Q01DX009 (ip), vehicle: Klucel (hydroxypropylcellulose) (HPC)
# [8] = dose: 100.0 mg/kg/injection, schedule: Q04DX003 (ip), vehicle: Klucel (hydroxypropylcellulose) (HPC)
# [9] = dose: 200.0 mg/kg/injection, schedule: Q01DX009 (ip), vehicle: Klucel (hydroxypropylcellulose) (HPC)
# [10] = dose: 200.0 mg/kg/injection, schedule: Q04DX003 (ip), vehicle: Klucel (hydroxypropylcellulose) (HPC)
# [11] = dose: 400.0 mg/kg/injection, schedule: Q01DX009 (ip), vehicle: Klucel (hydroxypropylcellulose) (HPC)
# [12] = dose: 400.0 mg/kg/injection, schedule: Q04DX003 (ip), vehicle: Klucel (hydroxypropylcellulose) (HPC)
# [13] = dose: 75.0 mg/kg/injection, schedule: Q01DX001 (ip), vehicle: saline
# [14] = dose: 150.0 mg/kg/injection, schedule: Q01DX001 (ip), vehicle: saline
# [15] = dose: 300.0 mg/kg/injection, schedule: Q01DX001 (ip), vehicle: saline
# [16] = dose: 100.0 mg/kg/injection, schedule: Q01DX001 (ip), vehicle: carboxymethylcellulose (CMC)
# [17] = dose: 100.0 mg/kg/injection, schedule: Q01DX009 (ip), vehicle: saline
# [18] = dose: 200.0 mg/kg/injection, schedule: Q01DX009 (ip), vehicle: saline
# [19] = dose: 100.0 mg/kg/injection, schedule: Q01DX001 (ip), vehicle: saline
# [20] = dose: 400.0 mg/kg/injection, schedule: Q01DX009 (ip), vehicle: saline
smiles,measurement,setting,value
O=P(CCCc1ccccc1)(CCCc1ccccc1)Oc1cccc(C(F)(F)F)c1,T/C,[1],90 % of control
same,T/C,[2],92 % of control
same,T/C,[3],101 % of control
COC1OC(COCc2ccccc2)C(OCc2ccccc2)C(OC)C1O (stereo not given),T/C,[1],96 % of control
same,T/C,[2],94 % of control
same,T/C,[3],104 % of control
O=c1oc2ccccc2c(O)c1Cc1c(O)c2ccccc2oc1=O,T/C,[4],99 % of control
same,T/C,[5],86 % of control
same,T/C,[6],86 % of control and 92 % of control
OCCOC(c1ccccc1)(c1ccccc1)c1ccccc1,T/C,"dose: 50.0 mg/kg/injection, schedule: Q01DX009 (ip), vehicle: saline with Tween-80",98 % of control
same,T/C,"dose: 100.0 mg/kg/injection, schedule: Q01DX009 (ip), vehicle: saline with Tween-80",100 % of control
same,T/C,"dose: 200.0 mg/kg/injection, schedule: Q01DX009 (ip), vehicle: saline with Tween-80",91 % of control
CCCCCCCCCC(O)CC (stereo not given),T/C,[7],106 % of control
same,T/C,[8],103 % of control
same,T/C,[9],102 % of control
same,T/C,[10],103 % of control
same,T/C,[11],105 % of control
same,T/C,[12],103 % of control
O=C(O)CCNCC(=O)O,T/C,[13],100 % of control
same,T/C,[14],100 % of control
same,T/C,[15],101 % of control
CCC(=O)OC1(c2ccccc2)CCN(C)CC1C (stereo not given),T/C,"dose: 5.0 mg/kg/injection, schedule: Q01DX001 (ip), vehicle: saline",105 % of control
same,T/C,"dose: 10.0 mg/kg/injection, schedule: Q01DX001 (ip), vehicle: saline",105 % of control
same,T/C,"dose: 20.0 mg/kg/injection, schedule: Q01DX001 (ip), vehicle: saline",102 % of control
same,T/C,"dose: 40.0 mg/kg/injection, schedule: Q01DX001 (ip), vehicle: saline",103 % of control
same,T/C,"dose: 80.0 mg/kg/injection, schedule: Q01DX001 (ip), vehicle: saline",102 % of control
Cn1c(=O)c(CC(C(=O)O)C(=O)O)nc2ccccc21,T/C,[6],93 % of control
same,T/C,[7],93 % of control
same,T/C,[9],100 % of control
COc1ccccc1C(=S)N1CCOCC1,T/C,[8],91 % of control
same,T/C,[10],96 % of control
same,T/C,[12],99 % of control
O=S(=O)(OCC1CO1)c1ccc(Cl)c(Cl)c1 (stereo not given),T/C,"dose: 100.0 mg/kg/injection, schedule: Q01DX008 (ip), vehicle: Klucel (hydroxypropylcellulose) (HPC)",96 % of control
same,T/C,"dose: 200.0 mg/kg/injection, schedule: Q01DX008 (ip), vehicle: Klucel (hydroxypropylcellulose) (HPC)",102 % of control
same,T/C,"dose: 400.0 mg/kg/injection, schedule: Q01DX008 (ip), vehicle: Klucel (hydroxypropylcellulose) (HPC)",106 % of control
Oc1ccc(I)c2cccnc12,T/C,"dose: 22.5 mg/kg/injection, schedule: Q01DX009 (ip), vehicle: saline",165 % of control
same,T/C,"dose: 45.0 mg/kg/injection, schedule: Q01DX009 (ip), vehicle: saline",240 % of control
same,T/C,"dose: 90.0 mg/kg/injection, schedule: Q01DX009 (ip), vehicle: saline",297 % of control
same,T/C,[16],93 % of control
same,T/C,[17],169 % of control
same,T/C,"dose: 180.0 mg/kg/injection, schedule: Q01DX009 (ip), vehicle: saline",206 % of control
same,T/C,"dose: 200.0 mg/kg/injection, schedule: Q01DX001 (ip), vehicle: carboxymethylcellulose (CMC)",90 % of control
same,T/C,"dose: 400.0 mg/kg/injection, schedule: Q01DX001 (ip), vehicle: carboxymethylcellulose (CMC)",95 % of control
CON(C)CCO,T/C,"dose: 25.0 mg/kg/injection, schedule: Q01DX001 (ip), vehicle: Klucel (hydroxypropylcellulose) (HPC)",107 % of control
same,T/C,"dose: 50.0 mg/kg/injection, schedule: Q01DX001 (ip), vehicle: Klucel (hydroxypropylcellulose) (HPC)",107 % of control
same,T/C,"dose: 100.0 mg/kg/injection, schedule: Q01DX001 (ip), vehicle: Klucel (hydroxypropylcellulose) (HPC)",105 % of control and 107 % of control
same,T/C,"dose: 200.0 mg/kg/injection, schedule: Q01DX001 (ip), vehicle: Klucel (hydroxypropylcellulose) (HPC)",102 % of control
C1CCN(SN2CCCCC2)CC1,T/C,[17],100 % of control
same,T/C,[18],102 % of control
C=C(Cl)CSCC,T/C,[1],111 % of control
CCC(/C=N/NC(N)=O)CC,T/C,[8],101 % of control
same,T/C,[10],93 % of control
same,T/C,[12],96 % of control
NCC(O)C(O)C(O)C(O)CO (stereo not given),T/C,[19],103 % of control
same,T/C,"dose: 200.0 mg/kg/injection, schedule: Q01DX001 (ip), vehicle: saline",95 % of control
COc1cccc(CNCc2cccc(OC)c2O)c1O,T/C,[19],96 % of control
CC(C)CCOP(=S)(N1CC1)N1CC1,T/C,"dose: 2.0 mg/kg/injection, schedule: Q01DX015 (ip), vehicle: carboxymethylcellulose (CMC)",101 % of control
same,T/C,"dose: 4.0 mg/kg/injection, schedule: Q01DX015 (ip), vehicle: carboxymethylcellulose (CMC)",103 % of control
same,T/C,"dose: 44.4 mg/kg/injection, schedule: Q01DX001 (ip), vehicle: carboxymethylcellulose (CMC)",117 % of control
same,T/C,[16],164 % of control
Cc1nnc([N+](=O)[O-])s1,T/C,[4],107 % of control
same,T/C,[5],112 % of control
same,T/C,[6],102 % of control
O=C(c1ccccc1)N(O)c1ccccc1,T/C,[13],93 % of control
same,T/C,"dose: 75.0 mg/kg/injection, schedule: Q01DX009 (ip), vehicle: saline",91 % of control
same,T/C,[14],104 % of control
same,T/C,"dose: 150.0 mg/kg/injection, schedule: Q01DX009 (ip), vehicle: saline",98 % of control
same,T/C,[15],95 % of control
same,T/C,"dose: 300.0 mg/kg/injection, schedule: Q01DX009 (ip), vehicle: saline",96 % of control
O=c1[nH][nH]c(=O)c2ccccc12,T/C,"dose: 50.0 mg/kg/injection, schedule: Q01DX001 (ip), vehicle: other",103 % of control
same,T/C,"dose: 100.0 mg/kg/injection, schedule: Q01DX001 (ip), vehicle: other",103 % of control
same,T/C,[7],111 % of control and 116 % of control
same,T/C,[8],108 % of control
same,T/C,"dose: 200.0 mg/kg/injection, schedule: Q01DX001 (ip), vehicle: other",100 % of control
same,T/C,[9],106 % of control and 105 % of control
same,T/C,[10],110 % of control
same,T/C,"dose: 400.0 mg/kg/injection, schedule: Q01DX001 (ip), vehicle: other",103 % of control
same,T/C,[11],100 % of control
same,T/C,[12],104 % of control
CCOC(=O)C(C)(OCC)OCC,T/C,[17],103 % of control
same,T/C,"dose: 100.0 mg/kg/injection, schedule: Q01DX009 (ip), vehicle: water",100 % of control
same,T/C,"dose: 100.0 mg/kg/injection, schedule: Q04DX003 (ip), vehicle: saline",109 % of control
same,T/C,"dose: 100.0 mg/kg/injection, schedule: Q04DX003 (ip), vehicle: water",97 % of control
same,T/C,[18],96 % of control
same,T/C,"dose: 200.0 mg/kg/injection, schedule: Q01DX009 (ip), vehicle: water",100 % of control
same,T/C,"dose: 200.0 mg/kg/injection, schedule: Q04DX003 (ip), vehicle: saline",96 % of control
same,T/C,"dose: 200.0 mg/kg/injection, schedule: Q04DX003 (ip), vehicle: water",101 % of control
same,T/C,[20],88 % of control
same,T/C,"dose: 400.0 mg/kg/injection, schedule: Q01DX009 (ip), vehicle: water",91 % of control
same,T/C,"dose: 400.0 mg/kg/injection, schedule: Q04DX003 (ip), vehicle: saline",102 % of control
same,T/C,"dose: 400.0 mg/kg/injection, schedule: Q04DX003 (ip), vehicle: water",97 % of control
CCOP(=O)(OCC)N1C(C)C1c1ccccc1 (stereo not given),T/C,"dose: 25.0 mg/kg/injection, schedule: Q04DX003 (sc), vehicle: carboxymethylcellulose (CMC)",100 % of control
same,T/C,"dose: 50.0 mg/kg/injection, schedule: Q04DX003 (sc), vehicle: carboxymethylcellulose (CMC)",104 % of control
same,T/C,"dose: 100.0 mg/kg/injection, schedule: Q04DX003 (sc), vehicle: carboxymethylcellulose (CMC)",112 % of control
Cc1ccc(S(=O)(=O)N(CCCc2c(C)nc(N)nc2NCCCc2ccccc2)c2ccccc2)cc1,T/C,"dose: 50.0 mg/kg/injection, schedule: Q01DX001 (ip), vehicle: saline with Tween-80",98 % of control
same,T/C,"dose: 100.0 mg/kg/injection, schedule: Q01DX001 (ip), vehicle: saline with Tween-80",98 % of control
same,T/C,"dose: 200.0 mg/kg/injection, schedule: Q01DX001 (ip), vehicle: saline with Tween-80",90 % of control
C#CCOCCC(C(=O)OCC)C(=O)OCC,T/C,[17],96 % of control
same,T/C,[18],91 % of control
same,T/C,[20],102 % of control
